Columns and labels:
MAPK14 (human) [1] = biological target: MAPK14 (human) (UniProt Q16539); assay: Inhibition of MAPK14 Kinase Activity
MAPK14 (human) [2] = biological target: MAPK14 (human) (UniProt Q16539); assay: Assessment of MAPK14 Kinase Activity

Sequence of MAPK14 (human) (Q16539 whole entry, looked up): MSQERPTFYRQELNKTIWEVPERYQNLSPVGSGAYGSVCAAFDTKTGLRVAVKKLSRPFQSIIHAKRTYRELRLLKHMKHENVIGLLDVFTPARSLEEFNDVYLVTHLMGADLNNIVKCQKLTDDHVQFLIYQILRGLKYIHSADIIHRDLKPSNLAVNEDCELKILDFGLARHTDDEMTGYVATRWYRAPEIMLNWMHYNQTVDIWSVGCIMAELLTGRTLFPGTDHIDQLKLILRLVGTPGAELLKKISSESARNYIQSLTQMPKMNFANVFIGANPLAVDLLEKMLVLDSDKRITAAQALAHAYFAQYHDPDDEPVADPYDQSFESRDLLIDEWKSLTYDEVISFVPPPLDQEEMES

Compound | IC50 (MAPK14 (human) [1]) | IC50 (MAPK14 (human) [2])
CCc1ccccc1CNC(=O)c1ccc(-c2cc(C(=O)NC3CC3)cc(F)c2C)[n+]([O-])c1 | < 10 µM | < 10 µM
CCC1CCCN(C(=O)c2ccc(-c3cc(C(=O)NC4CC4)cc(F)c3C)[n+]([O-])c2)C1 (centres undefined) | < 10 µM | < 10 µM
COC[C@H](C)NC(=O)c1ccc(-c2cc(C(=O)NC3CC3)cc(F)c2C)[n+]([O-])c1 | < 10 µM | < 10 µM
Cc1ccc(CNC(=O)c2ccc(-c3cc(C(=O)NC4CC4)cc(F)c3C)[n+]([O-])c2)cc1C | < 10 µM | < 10 µM
CCC(C)(C)NC(=O)c1ccc(-c2cc(C(=O)NC3CC3)cc(F)c2C)[n+]([O-])c1 | < 10 µM | < 10 µM
CCC(CC)NC(=O)c1ccc(-c2cc(C(=O)NC3CC3)cc(F)c2C)[n+]([O-])c1 | < 10 µM | < 10 µM
Cc1c(F)cc(C(=O)NC2CC2)cc1-c1ccc(C(=O)NC(C)c2ccc(Cl)cc2)c[n+]1[O-] (centres undefined) | < 10 µM | < 10 µM
Cc1c(F)cc(C(=O)NC2CC2)cc1-c1ccc(C(=O)NCc2ccc(C(F)(F)F)cc2C(F)(F)F)c[n+]1[O-] | < 10 µM | < 10 µM

More lines, now with the values ahead:

IC50 (MAPK14 (human) [1]) | IC50 (MAPK14 (human) [2]) | Compound
< 10 µM | < 10 µM | CCCNC(=O)c1ccc(-c2cc(C(=O)NC3CC3)cc(F)c2C)[n+]([O-])c1
< 10 µM | < 10 µM | Cc1ccc(C)c(CNC(=O)c2ccc(-c3cc(C(=O)NC4CC4)cc(F)c3C)[n+]([O-])c2)c1
< 10 µM | < 10 µM | Cc1c(F)cc(C(=O)NC2CC2)cc1-c1ccc(C(=O)NCC(C)(C)C)c[n+]1[O-]
< 10 µM | < 10 µM | Cc1c(F)cc(C(=O)NC2CC2)cc1-c1ccc(C(=O)N[C@H](C)C(C)C)c[n+]1[O-]
